Where “and” joins values, the source holds several entries; their conditions need not be identical. Equal values may be shown once. Read-outs that look alike come from different tables or passages of the source.
Experiments:
[1] = biological target: T1, CYP1A2 (Homo sapiens, UniProt P05177); assay: CYP enzyme inhibition test, P450-Glo CYP1A2 Screening System; format: in vitro ADME
T1 construct: purchased Promega
T1 sequence (P05177 1-516): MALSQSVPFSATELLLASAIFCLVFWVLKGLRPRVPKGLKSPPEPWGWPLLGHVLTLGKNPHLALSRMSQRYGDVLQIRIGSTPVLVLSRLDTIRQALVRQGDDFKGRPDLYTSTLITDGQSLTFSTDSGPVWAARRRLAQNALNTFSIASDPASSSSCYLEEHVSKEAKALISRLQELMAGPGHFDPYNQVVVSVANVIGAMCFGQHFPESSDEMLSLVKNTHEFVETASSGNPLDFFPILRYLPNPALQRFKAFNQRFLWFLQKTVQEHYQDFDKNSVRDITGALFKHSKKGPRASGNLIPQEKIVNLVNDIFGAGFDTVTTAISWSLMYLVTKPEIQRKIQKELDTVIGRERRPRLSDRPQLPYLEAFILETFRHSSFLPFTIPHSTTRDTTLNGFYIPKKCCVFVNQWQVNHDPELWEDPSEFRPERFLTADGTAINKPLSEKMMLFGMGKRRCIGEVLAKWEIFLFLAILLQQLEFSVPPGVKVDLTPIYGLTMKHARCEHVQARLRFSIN
Procedure: Test Example 5: CYP enzyme (Cytocrome P450) inhibition test […] Test system: • P450-Glo™ CYP1A2 Screening System (Promega); • P450-Glo™ CYP2D6 Screening System (Promega); • P450-Glo™ CYP3A4 Screening System (Promega). • 2. Test instrument: BMG PHERAstar FS Luminescent. • 3. Test method: The test was carried out according to the kit instructions, and the steps were as follows: 3.1. Inhibition of CYP1A2: Test group: […] Negative control group: The experimental method was the same as that of the test group, but the test compound was not added. Blank control group: […] The median inhibitory concentration (IC50) or range of the compound was estimated according to the inhibition rate of CYP enzymes at different concentrations: […]

[2] = test system: TGFβ/Smads signaling pathway in HEK293-SBE cells; assay: In vitro cell activity inhibition test, Bright-Glo luciferase reporter in HEK293-SBE cells; format: cell-based; details: TGFβ 0.5 ng/ml, luciferase reporter gene method
Procedure: Test Example 3: In vitro cell activity inhibition test
Experimental method: According to the instructions of Bright-Glo™ luciferase detection kit (Promega), the inhibitory effect of the compounds of the present invention on TGFβ/Smads signaling pathway in HEK293-SBE cells was determined. The steps were as follows: HEK293-SBE cells (Bps bioscience) were added to a 96-well plate (10% FBS medium), 30,000/well, and cultured overnight at 37°C and 5% CO2. The medium was changed to 0.5% FBS medium, and the test compound diluted in 0.5% FBS medium was added. The highest final concentration of the test compound was 10 µM with 4-fold dilution, and a total of 8 concentration gradients. After 4-5 hours of incubation, 10 µl of TGFβ was added. The final concentration of TGFβ was 0.5 ng/ml. 10 µl of medium added in replace of TGFβ was the negative control. In the blank control, no test compound was added, and TGFβ was added. Bright Glo reagent was added to each well, and the chemiluminescence signal value was read on a microplate reader.
The percent inhibition rates of the test compound at different concentrations were plotted against the compound concentrations, the curve was fitted according to the four-parameter model, and the IC50 value was calculated by the following formula: y = Min + (Max - Min) / (1 + (x / IC50) ^ (-Hillslope)), wherein: y is percentage inhibition rate; Max and Min are the maximum and minimum values of the fitted curve, respectively; x is the logarithmic concentration of compound; and Hillslope is the slope of the curve.

[3] = biological target: TGFβR2 (Homo sapiens, UniProt P37173); assay: In vitro enzymatic activity inhibition test (TGFβR2), ADP-Glo Kinase Detection Kit; format: biochemical; details: MBP substrate, calculated from percent inhibition at 1000nM, 100nM, 10nM
TGFβR2, sequence (P37173 23-567): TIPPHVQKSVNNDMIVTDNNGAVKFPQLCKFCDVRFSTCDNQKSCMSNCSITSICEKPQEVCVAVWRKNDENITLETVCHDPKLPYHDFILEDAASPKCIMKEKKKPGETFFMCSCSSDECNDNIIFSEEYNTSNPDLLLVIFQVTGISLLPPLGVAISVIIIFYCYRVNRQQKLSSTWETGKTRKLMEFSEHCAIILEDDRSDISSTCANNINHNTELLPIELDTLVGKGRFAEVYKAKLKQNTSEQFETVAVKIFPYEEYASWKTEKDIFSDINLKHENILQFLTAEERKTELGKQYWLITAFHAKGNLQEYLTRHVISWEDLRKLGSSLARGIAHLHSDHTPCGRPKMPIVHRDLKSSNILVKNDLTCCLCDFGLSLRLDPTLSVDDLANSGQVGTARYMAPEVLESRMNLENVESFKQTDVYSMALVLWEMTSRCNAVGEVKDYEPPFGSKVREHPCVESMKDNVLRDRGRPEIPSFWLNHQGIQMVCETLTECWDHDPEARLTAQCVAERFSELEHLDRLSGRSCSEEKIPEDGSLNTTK
Procedure: Test Example 2: In vitro enzymatic activity inhibition test (TGFβR2).
Experimental method: According to the instructions of ADP-Glo™ Kinase Detection Kit (Promega), the inhibitory effect of the compounds of the present invention on the enzymatic activity of TGFβR2 was determined, and the steps were as follows: TGFβR2 enzyme were pre-incubated with different concentrations of test compounds (1000nM, 100nM, 10nM) at 30°C for 30 min, myelin basic protein (MBP) and adenosine triphosphate (ATP) were added to initiate the reaction. The incubation was performed at 30°C for 3 h, followed by an addition of ADP-Glo™ reagent and incubated at room temperature for 90 min, kinase detection reagent was then added. The chemiluminescence signal values were detected after incubation at room temperature for another 30 min.
When the percent inhibition was between 30% and 80%, the median inhibitory concentration (IC50) or range of the compound was calculated according to the following formula: IC50 = X × (1 - percent inhibition rate (%)) / percent inhibition rate (%), wherein X is the concentration of the compound at which the inhibition rate is between 30% and 80%.

[4] = Pharmacokinetics (PK) study in Balb/c mice; format: in vivo; details: female Balb/c mice; for F: PO 10 mg/kg compared with IV 1 mg/kg
Procedure: Test Example 6: Pharmacokinetics (PK) study in Balb/c mice
The example compounds were administered to female Balb/c mice via intravenous injection (IV) and gastric perfusion (PO), respectively, and their pharmacokinetic properties were investigated. The administered doses for IV and PO were 1 mg/kg and 10 mg/kg, respectively. The solvent for IV was 5% DMSO + 5% Solutol (15-hydroxystearic acid polyethylene glycol ester) + 90% normal saline, the solvent for PO was 0.5% MC ([…] methylcellulose). Whole blood samples were collected at various time points after IV and PO administration, and subjected to EDTA-K2 anticoagulation before test.
Whole blood samples were processed by precipitating proteins and then subjected to LC-MS/MS analysis. The pharmacokinetic parameters were calculated by the non-compartmental model using WinNonlin 6.3 software, and the results were shown in Table 6 below. Table 6. Pharmacokinetic parameters of compounds in whole blood in mice

[5] = PO, 10 mg/kg, whole blood, listed as Example VI
[6] = Luciferin-ME 100 µM, read-out: IC50 (µM) CYP1A2
[7] = mouse, IV, 1 mg/kg, whole blood
[8] = mouse, IV, 1 mg/kg, whole blood, read-out: Cmax
[9] = mouse, PO, 10 mg/kg, whole blood
[10] = mouse, PO, 10 mg/kg, whole blood, read-out: Cmax

| IC50 [3] | F [4] | T1/2 ([4]; PO, 10 mg/kg, whole blood) | IC50 [1, 6] | AUC(0-t) [4, 7] | clearance [4, 7] | Cmax [4, 8] | AUC(0-t) [4, 9] | half-life [4, 9] | Cmax [4, 10] | Compound | IC50 [1] | IC50 [2] | also measured |
| --- | --- | --- | --- | --- | --- | --- | --- | --- | --- | --- | --- | --- | --- |
| – | – | – | – | – | – | – | – | – | – | Cc1cccc(-n2nc3c(c2-c2ccn4nccc4c2)CCC3)n1 [Example 4, 5-[2-(6-methylpyridin-2-yl)-2,4,5,6-tetrahydrocyclopenteno [c]pyrazol-3-yl]pyrazolo[1,5-a]pyridine] | > 10 µM | 35 ± 2.69 nM | – |
| 593 ± 129 nM | – | – | > 10 µM | – | – | – | – | – | – | Cc1cccc(-n2nc(NCc3ccc(F)cc3)cc2-c2ccn3ncc(C(N)=O)c3c2)n1 [Example 11, 5-(3-(4-fluorobenzylamino)-1-(6-methylpyridin-2-yl)-1H-pyrazol-5-yl)pyrazolo[1,5-a]pyridine-3-carboxamide] | – | 19.4 ± 1.52 nM | – |
| > 1000 nM | 98.1% and 98.1±15.0% | 108 ± 21 min | > 10 µM | 458 ng·h/mL | 35 mL/min/kg | 917 ng/mL | 4360 ng·h/mL | 108 min | 6270 ng/mL | CNc1cc(-c2ccn3ncc(C(N)=O)c3c2)n(-c2cccc(C)n2)n1 [Example 8, 5-(3-(methylamino)-1-(6-methylpyridin-2-yl)-1H-pyrazol-5-yl)pyrazolo[1,5-a]pyridine-3-carboxamide] | – | 29.9 ± 1.27 nM | – |
| > 1000 nM | 52.1% and 52.1±2.6% | 31.2 ± 10.8 min | > 10 µM | 572 ng·h/mL | 29.3 mL/min/kg | 862 ng/mL | 3040 ng·h/mL | 31.2 min | 5920 ng/mL | Cc1cccc(-n2nccc2-c2ccn3ncc(C(N)=O)c3c2)n1 [Example 12, 5-(1-(6-methylpyridin-2-yl)-1H-pyrazol-5-yl)pyrazolo[1,5-a]pyridine-3-carboxamide] | – | 26.6 ± 5.43 nM | – |

| Compound | IC50 [3] | F [4] | T1/2 ([4]; PO, 10 mg/kg, whole blood) | IC50 [1, 6] | AUC(0-t) [4, 7] | clearance [4, 7] | Cmax [4, 8] | AUC(0-t) [4, 9] | half-life [4, 9] | Cmax [4, 10] | IC50 [1] | IC50 [2] | also measured |
| --- | --- | --- | --- | --- | --- | --- | --- | --- | --- | --- | --- | --- | --- |
| Cc1cccc(-n2nc(NC(C)c3ccc(F)cc3)cc2-c2ccn3ncc(C(N)=O)c3c2)n1 (stereo not shown) [Example 10, 5-(3-(1-(4-fluorophenyl)ethylamino)-1-(6-methylpyridin-2-yl)-1H-pyrazol-5-yl)pyridino[1,5-a]pyridine-3-carboxamide] | > 1000 nM | – | – | – | – | – | – | – | – | – | > 10 µM | 43.1 ± 4.19 nM | – |
| Cc1cccc(-n2nc3c(c2-c2ccn4ncc(C(N)=O)c4c2)CCC3)n1 [Example 6, 5-[2-(6-methylpyridin-2-yl)-2,4,5,6-tetrahydrocyclopenteno[c]pyrazol-3-yl]pyrazolo[1,5-a]pyridine-3-carboxamide] | – | 61.4±9.5% | 27.6 ± 11.4 min | – | – | – | – | – | – | – | – | 20.1 ± 1 nM | IC50 ([1]; Luciferin-ME 100 µM, 30 min, read-out: IC50 (µM) CYP1A2): > 10 µM; AUClast ([4]; IV, 1 mg/kg, whole blood): 578 ng·h/mL and 578 ± 4 ng·h/mL; Cl ([4]; IV, 1 mg/kg, whole blood): 28.4 mL/min/kg and 28.4 ± 0.3 mL/min/kg; Cmax ([4]; IV, 1 mg/kg, whole blood): 1163 ng/mL and 1163 ± 58 ng/mL; F ([4]; listed as Example VI): 61.4%; AUClast ([4]; PO, 10 mg/kg, whole blood): 3586 ± 563 ng·h/mL; Cmax ([4]; PO, 10 mg/kg, whole blood): 7440 ± 226 ng/mL; AUClast [4, 5]: 3586 ng·h/mL; Cmax [4, 5]: 7440 ng/mL; T1/2 [4, 5]: 27.6 min |

Reference: EP4219453A1 (Sichuan Kelun-Biotech Biopharmaceutical Co., Ltd., priority 2020, dated 2022)
